According to paper PMC3177007 (Cancer gene therapy, 2011):

Key:
MDA-MB-435 cells = assay: Cellular uptake of Cy3 labeled-siRNA nanoplexes, confocal microscopy; format: cell-based, human; conditions: cells incubated 4 h with nanoplexes
[1] = Particle size by dynamic light scattering; format: physicochemical; conditions: DLS; H3K(+H)4b:siRNA 2.2:1 (w/w)
Zeta potential = format: physicochemical; conditions: nanoplexes at selected ratios: H3K(+H)4b:siRNA 2.2:1; (RGD-PEG)-H3K(+H)4b/H2K4b/siRNA 3:0.8:1; (RGD-PEG)^4-H3K(+H)4b/H2K4b/siRNA 4:0.8:1
[2] = H2K4b alone; ref [18]; cited from earlier work
siRNA = assay: Gel retardation assay of HK:siRNA nanoplexes; format: binding; conditions: H2K4b:siRNA ratio 0.8 to 1 (w:w); data not shown

Sequence | intracellular fluorescence pattern of Cy3 labeled-siRNA (MDA-MB-435 cells) | size of the siRNA nanoplex [1] [nm] | zeta potential (Zeta potential) [mV] | effectiveness as carrier of siRNA in silencing its targets [2] | siRNA retained in gel retardation assay (siRNA) [%]
KHHHKHHHKHHHHKHHHK [H3K(+H)4b] | discrete intracellular particles | 149 ± 41 | 37 |  | 
KHKHHKHHKHHKHHKHHKHK [H2K4b] |  |  |  | not an effective carrier | 35
